Here are results for 37 molecules from patent publication US10654837B2, “Sulphamoylaryl derivatives and use thereof as medicaments for the treatment of liver fibrosis” (Janssen Pharmaceutica NV, priority 2017, dated 2020).

The IC50 is the concentration that gives 50% inhibition.

T1 sequence (P41595 whole entry): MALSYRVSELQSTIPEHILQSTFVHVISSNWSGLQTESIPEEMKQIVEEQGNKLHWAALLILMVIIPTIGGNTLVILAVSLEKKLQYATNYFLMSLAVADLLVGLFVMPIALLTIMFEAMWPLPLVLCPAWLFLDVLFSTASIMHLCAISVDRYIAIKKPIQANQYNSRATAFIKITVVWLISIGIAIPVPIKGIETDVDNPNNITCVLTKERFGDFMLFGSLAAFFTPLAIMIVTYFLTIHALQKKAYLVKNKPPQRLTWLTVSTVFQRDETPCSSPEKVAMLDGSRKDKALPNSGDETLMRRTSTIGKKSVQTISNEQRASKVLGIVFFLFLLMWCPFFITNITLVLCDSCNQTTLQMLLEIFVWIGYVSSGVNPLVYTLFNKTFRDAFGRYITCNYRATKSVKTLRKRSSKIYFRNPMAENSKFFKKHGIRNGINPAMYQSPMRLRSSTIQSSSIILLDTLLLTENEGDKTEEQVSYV

The assay concerns the target T1, 5HTR2B (Homo sapiens, UniProt P41595).
T1 construct: host or cells: human Maverick/293 cells
The assay can be described thus: 5HTR2B antagonist activity, calcium mobilization assay in human Maverick/293 cells (serotonin as agonist). Type of assay: cell-based. Particulars: intracellular calcium, emission 525 nm, read-out: Ca assay IC50. The essentials: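 Serum-starved (2 h) human Maverick/293 cells loaded with calcium dye for 50 min at 37 °C, then antagonist preincubated 15-30 min before serotonin challenge. Calcium fluorescence (ex 485/em 525 nm) recorded for 80 s; peak-based % inhibition fitted sigmoidally for IC50.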
Background: Calcium assays in cells follow changes in intracellular calcium, usually with a dye or a luminescent sensor.
Turning to `COc1ccc(S(=O)(=O)N[C@H]2CCOC2)cc1C(=O)Nc1cc(F)cc(F)c1Cl` [Compound 96, (S)—N-(2-Chloro-3,5-difluorophenyl)-2-methoxy-5-(N-(tetrahydrofuran-3-yl)sulfamoyl)benzamide], the IC50 turned out to be 84 nM.
The same measure for `COc1ccc(S(=O)(=O)N[C@H]2CCOC2)cc1C(=O)Nc1cc(F)c(F)c(F)c1` [Compound 97, (S)-2-Methoxy-5-(N-(tetrahydrofuran-3-yl)sulfamoyl)-N-(3,4,5-trifluorophenyl) benzamide]: 186 nM.
The figure for `COc1ccc(S(=O)(=O)N[C@H]2CCOC2)cc1C(=O)Nc1cc(F)c(C#N)cc1F` [Compound 98, (S)—N-(4-Cyano-2,5-difluorophenyl)-2-methoxy-5-(N-(tetrahydrofuran-3-yl)sulfamoyl)benzamide] is 37 nM; for `COc1ccc(S(=O)(=O)N[C@H]2CCOC2)cc1C(=O)Nc1ccccc1F` [Compound 99, (S)—N-(2-Fluorophenyl)-2-methoxy-5-(N-(tetrahydrofuran-3-yl)sulfamoyl) benzamide] it is 1.6 nM; for `COc1ccc(S(=O)(=O)N[C@H]2CCOC2)cc1C(=O)Nc1cccc(F)c1` [Compound 100, (S)—N-(3-Fluorophenyl)-2-methoxy-5-(N-(tetrahydrofuran-3-yl)sulfamoyl) benzamide] it is 4.6 nM.
The figure for `COc1ccc(S(=O)(=O)N[C@H]2CCOC2)cc1C(=O)Nc1ccc(C(F)(F)F)cc1` [Compound 101, (S)-2-Methoxy-5-(N-(tetrahydrofuran-3-yl)sulfamoyl)-N-(4-(trifluoromethyl)phenyl)benzamide] is 219 nM.
As for `COc1ccc(S(=O)(=O)N[C@H]2CCOC2)cc1C(=O)Nc1cccc(C#N)c1` [Compound 102, (S)—N-(3-cyanophenyl)-2-methoxy-5-(N-(tetrahydrofuran-3-yl)sulfamoyl) benzamide], the IC50 came to 435 nM.
The figure for `COc1ccc(S(=O)(=O)N[C@H]2CCOC2)cc1C(=O)Nc1c(F)cccc1Cl` [Compound 103, (S)—N-(2-Chloro-6-fluorophenyl)-2-methoxy-5-(N-(tetrahydrofuran-3-yl)sulfamoyl)benzamide] is 8.4 nM; for `COc1ccc(S(=O)(=O)N[C@H]2CCOC2)cc1C(=O)Nc1ccc(C#N)cc1` [Compound 104, (S)—N-(4-Cyanophenyl)-2-methoxy-5-(N-(tetrahydrofuran-3-yl)sulfamoyl) benzamide] it is 201 nM.
The same measure for `COc1ccc(S(=O)(=O)N[C@H]2CCOC2)cc1C(=O)Nc1c(F)cccc1F` [Compound 105, (S)—N-(2,6-Difluorophenyl)-2-methoxy-5-(N-(tetrahydrofuran-3-yl)sulfamoyl) benzamide]: 12 nM; for `COc1ccc(S(=O)(=O)N[C@H]2CCOC2)cc1C(=O)Nc1ccc(OC(F)F)cc1` [Compound 106, (S)—N-(4-(Difluoromethoxy)phenyl)-2-methoxy-5-(N-(tetrahydrofuran-3-yl)sulfamoyl)benzamide]: 596 nM; for `COc1ccc(S(=O)(=O)N[C@H]2CCOC2)cc1C(=O)Nc1cccc(OC(F)F)c1` [Compound 107, (S)—N-(3-(Difluoromethoxy)phenyl)-2-methoxy-5-(N-(tetrahydrofuran-3-yl)sulfamoyl)benzamide]: 27 nM.
The figure for `COc1ccc(S(=O)(=O)N[C@H]2CCOC2)cc1C(=O)Nc1ccc(Cl)cc1` [Compound 108, (S)—N-(4-Chlorophenyl)-2-methoxy-5-(N-(tetrahydrofuran-3-yl)sulfamoyl) benzamide] is 5.5 nM.
Consider `COc1ccc(S(=O)(=O)N[C@H]2CCOC2)cc1C(=O)Nc1cccc(C(F)(F)F)c1` [Compound 109, (S)-2-Methoxy-5-(N-(tetrahydrofuran-3-yl)sulfamoyl)-N-(3-(trifluoromethyl)phenyl)benzamide], for which the IC50 was 231 nM.
The same measure for `COc1ccc(S(=O)(=O)N[C@H]2CCOC2)cc1C(=O)Nc1cccc2c1cnn2C` [Compound 110, (S)-2-Methoxy-N-(1-methyl-1H-indazol-4-yl)-5-(N-(tetrahydrofuran-3-yl)sulfamoyl)benzamide]: 10 nM; for `COc1ccc(S(=O)(=O)N[C@H]2CCOC2)cc1C(=O)Nc1ccc(F)c(F)c1` [Compound 111, (S)—N-(3,4-Difluorophenyl)-2-methoxy-5-(N-(tetrahydrofuran-3-yl)sulfamoyl) benzamide]: 1.3 nM; for `COc1ccc(S(=O)(=O)N[C@H]2CCOC2)cc1C(=O)Nc1ccc(F)c(Cl)c1` [Compound 112, (S)—N-(3-Chloro-4-fluorophenyl)-2-methoxy-5-(N-(tetrahydrofuran-3-yl)sulfamoyl)benzamide]: 2.9 nM.
Regarding `COc1ccc(S(=O)(=O)N[C@H]2CCOC2)cc1C(=O)Nc1cccc(F)c1F` [Compound 113, (S)—N-(2,3-Difluorophenyl)-2-methoxy-5-(N-(tetrahydrofuran-3-yl)sulfamoyl) benzamide], the IC50 turned out to be 17 nM.
The figure for `COc1ccc(S(=O)(=O)N[C@H]2CCOC2)cc1C(=O)Nc1ccc(Cl)cc1F` [Compound 114, (S)—N-(4-Chloro-2-fluorophenyl)-2-methoxy-5-(N-(tetrahydrofuran-3-yl)sulfamoyl)benzamide] is 0.4 nM.
The figure for `COc1ccc(S(=O)(=O)N[C@H]2CCOC2)cc1C(=O)Nc1ccc(Cl)c(F)c1` [Compound 115, (S)—N-(4-Chloro-3-fluorophenyl)-2-methoxy-5-(N-(tetrahydrofuran-3-yl)sulfamoyl)benzamide] is 0.8 nM; for `COc1ccc(S(=O)(=O)N[C@H]2CCOC2)cc1C(=O)Nc1ccc(F)cn1` [Compound 116, (S)—N-(5-Fluoropyridin-2-yl)-2-methoxy-5-(N-(tetrahydrofuran-3-yl)sulfamoyl) benzamide] it is 5.4 nM.
The same measure for `COc1ccc(S(=O)(=O)N[C@H]2CCOC2)cc1C(=O)Nc1ncc(F)cn1` [Compound 117, (S)—N-(5-Fluoropyrimidin-2-yl)-2-methoxy-5-(N-(tetrahydrofuran-3-yl)sulfamoyl)benzamide]: 64 nM.
Turning to `COc1ccc(S(=O)(=O)N[C@H]2CCOC2)cc1C(=O)Nc1ncc(F)cc1F` [Compound 118, (S)—N-(3,5-Difluoropyridin-2-yl)-2-methoxy-5-(N-(tetrahydrofuran-3-yl)sulfamoyl)benzamide], the half-maximal inhibitory concentration (IC50) is 6.7 nM.
The figure for `COc1ccc(S(=O)(=O)N[C@H]2CCOC2)cc1C(=O)Nc1ncc(F)cc1Cl` [Compound 119] is 1.4 nM; for `COc1ccc(S(=O)(=O)N[C@H]2CCOC2)cc1C(=O)Nc1ncc(Cl)cc1F` [Compound 120, (S)—N-(5-Chloro-3-fluoropyridin-2-yl)-2-methoxy-5-(N-(tetrahydrofuran-3-yl)sulfamoyl)benzamide] it is 50 nM.
The figure for `COc1ccc(S(=O)(=O)N[C@H]2CCOC2)cc1C(=O)Nc1ncccc1Cl` [Compound 121, (S)—N-(3-Chloropyridin-2-yl)-2-methoxy-5-(N-(tetrahydrofuran-3-yl)sulfamoyl) benzamide] is 3.8 nM; for `COc1ccc(S(=O)(=O)N[C@H]2CCOC2)cc1C(=O)Nc1ccc(F)cc1` [Compound 122, (S)—N-(4-Fluorophenyl)-2-methoxy-5-(N-(tetrahydrofuran-3-yl)sulfamoyl) benzamide] it is 0.6 nM.
The figure for `COc1ccc(S(=O)(=O)N[C@H]2CCOC2)cc1C(=O)Nc1ccccc1Br` [Compound 123, (S)—N-(2-Bromophenyl)-2-methoxy-5-(N-(tetrahydrofuran-3-yl)sulfamoyl) benzamide] is 0.2 nM.
On to `COc1ccc(S(=O)(=O)N[C@H]2CCOC2)cc1C(=O)Nc1cccc(Br)c1` [Compound 124, (S)—N-(3-Bromophenyl)-2-methoxy-5-(N-(tetrahydrofuran-3-yl)sulfamoyl) benzamide], for which the IC50 is 6.3 nM.
The figure for `COc1ccc(S(=O)(=O)N[C@H]2CCOC2)cc1C(=O)Nc1ccc(Br)cc1` [Compound 125, (S)—N-(4-Bromophenyl)-2-methoxy-5-(N-(tetrahydrofuran-3-yl)sulfamoyl) benzamide] is 28 nM.
With `COc1ccc(S(=O)(=O)N[C@H]2CCOC2)cc1C(=O)Nc1cccc(Cl)c1` [Compound 126, (S)—N-(3-Chlorophenyl)-2-methoxy-5-(N-(tetrahydrofuran-3-yl)sulfamoyl) benzamide], the IC50 turned out to be 12 nM.
The same measure for `COc1ccc(S(=O)(=O)N[C@H]2CCOC2)cc1C(=O)Nc1ccccc1Cl` [Compound 127, (S)—N-(2-Chlorophenyl)-2-methoxy-5-(N-(tetrahydrofuran-3-yl)sulfamoyl) benzamide]: 0.1 nM.
The same measure for `COc1ccc(S(=O)(=O)N[C@H]2CCOC2)cc1C(=O)Nc1ccccc1OC(F)F` [Compound 128, (S)—N-(2-(Difluoromethoxy)phenyl)-2-methoxy-5-(N-(tetrahydrofuran-3-yl)sulfamoyl)benzamide]: 1.2 nM; for `COc1ccc(S(=O)(=O)N[C@H]2CCOC2)cc1C(=O)Nc1ccc(C)cc1` [Compound 129, (S)-2-Methoxy-5-(N-(tetrahydrofuran-3-yl)sulfamoyl)-N-(p-tolyl)benzamide]: 12 nM; for `COc1ccc(S(=O)(=O)N[C@H]2CCOC2)cc1C(=O)Nc1c(F)cccc1OC` [Compound 130, (S)—N-(2-Fluoro-6-methoxyphenyl)-2-methoxy-5-(N-(tetrahydrofuran-3-yl)sulfamoyl)benzamide]: 2.1 nM.
The figure for `COc1ccc(S(=O)(=O)N[C@H]2CCOC2)cc1C(=O)Nc1ccc(F)cc1C` [Compound 131, (S)—N-(4-Fluoro-2-methylphenyl)-2-methoxy-5-(N-(tetrahydrofuran-3-yl)sulfamoyl)benzamide] is 1.3 nM; for `COc1ccc(S(=O)(=O)N[C@H]2CCOC2)cc1C(=O)Nc1ncc(F)cc1C` [Compound 132, (S)—N-(5-fluoro-3-methylpyridin-2-yl)-2-methoxy-5-(N-(tetrahydrofuran-3-yl)sulfamoyl)benzamide] it is 163 nM.
